Assay [1] relates to NSCLC and SCLC cell lines. The experiment in a line: Apoptotic cell death in panel of NSCLC and SCLC cell lines. It is filed as cell-based, human. The following applies: 1μM. The protocol: Figure 1 Discovery of small molecule BKA-073 as a lead compound that targets BH3 domain of Bak and induces mitochondrial priming and apoptosis in lung cancer cells. (A) Schematic illustration of screening strategies used to identify the lead Bak agonist BKA-073 and its chemical structure. (B) Structural modeling of BKA-073 in the BH3 domain binding pocket of Bak protein. (C) Expression levels of Bak were analyzed by Western blot in NSCLC and SCLC cell lines. (D-E) A panel of NSCLC and SCLC cell lines were treated with BKA-073 (1μM) for 16h or 72h, followed by analysis of dynamic BH3 profiling (D) or apoptotic cell death (E), respectively. Data represent the mean ± SD, n = 3 per group. **P < 0.01, ***P < 0.001, by 2-tailed t test. TEXT PRINTED IN THE PICTURE: (A) BKA-073: MW: 361.87 […]
Supplemental Materials and Methods
Small molecule NSC14073 (BKA-073) was obtained from the Drug Synthesis and Chemistry Branch, Developmental Therapeutic Program, Division of Cancer Treatment and Diagnosis, National Cancer Institute (NCI, Bethesda, MD) (http://dtp.nci.nih.gov/RequestCompounds).
Venetoclax (ABT-199, 205807) was purchased from MedKoo Biosciences (Morrisville, NC).
Antibodies including PARP (sc-8007), Bax (sc-7480), Mcl-1 (sc-12756), cytochrome c (sc-13156) and actin (sc-47778) were purchased from Santa Cruz (Santa Cruz, CA). Bcl2 antibody (05-826) was obtained from Calbiochem (Darmstadt, Germany). Bcl-XL (ab32370), Bak (ab32371) and Bax (ab104156) antibodies were purchased from Abcam (Cambridge, MA). […]
Cells were seeded at a density of 5 × 103 per well in 96-well plates and allowed to grow overnight. After treatment with BKA-073, the surviving cell fraction was determined using the sulforhodamine B (SRB) assay as described. Optical density (OD) was measured at 510nm in a microplate reader (Synergy H1, BioTek®, Winooski, VT). […]
Apoptotic cells were detected using Annexin-V Apoptosis Detection Kit (556547, BD Biosciences, San Jose, CA) according to the manufacturer’s instructions. […]

Another assay deals with A549 xenografts. The assay is described as follows: A549 lung cancer xenografts, tumor growth. It is filed as in vivo, Nu/Nu nude mice. The method, then:
(§1) Six-week-old female Nu/Nu nude mice were purchased from Envigo (Indianapolis, IN) and housed under pathogen-free conditions in microisolator cages. The animal propagation protocol was approved by the Emory Institutional Animal Care and Use Committee (IACUC) and the Emory Animal Ethics Committee. 3×10^6 lung cancer cells were injected into subcutaneous tissue in the flank region of nude mice. The tumors were allowed to grow to an average volume of 150~200 mm^3 prior to initiation of therapy as previously described, [29]. Patient-derived xenografts (PDXs, TKO-002 and TKO-005) were established as part of an IRB-approved phase II co-clinical trial of arsenic trioxide in patients with relapsed SCLC who had failed standard platinum-based chemotherapy. Tumor samples were obtained by image-guided biopsy and were directly implanted into Nu/Nu nude mice without intervening propagation in plastic culture plates. Direct serial propagation of growing tumor occurred for up to 5 generations. The animal propagation protocol was approved by the Emory IACUC and the Emory Animal Ethics Committee. Mice with SCLC and NSCLC xenografts or PDXs were treated with BKA-073 intraperitoneally (i.p.) or venetoclax orally as indicated. During treatment, tumor volume (V) was measured by caliper measurements once every two days as described previously. Mice were euthanized by CO2 inhalation at the end of treatment. Harvested tumor tissues were used for further analysis.
To assess whether BKA-073 induced suppression of tumor growth occurs through activation of Bak and apoptosis in vivo, representative samples from harvested tumor tissues were analyzed by cross-linking with BMH for Bak oligomerization or by immunohistochemistry (IHC) for active caspase 3 as described, [29], [47]. […] There were no decreases in white cells (WBC), red blood cells (RBC) and platelets (PLT) in blood.

Another assay deals with DMS114 xenografts. The assay is described as follows: SCLC DMS114 xenografts, tumor growth. It is filed as in vivo, Nu/Nu nude mice. The following applies: 15mg/kg/d i.p., 2-4 weeks. The method, then:
as §1, with “Harvested tumor tissues were used for further analysis.” left out

With `COc1ccc2nc3ccccc3c(NCCNCC(C)O)c2c1` (stereo not drawn) [BKA-073], the induction of apoptosis entry in assay [1] (72h) is given as “potently induced”. Moreover, the “sensitivity (mitochondrial priming and apoptosis), lines with relatively higher Bak” value in assay [1] (A549, H157, H1975, DMS53, DMS114, H209, H526) is given as “more sensitive”. Also, in assay [1] (Calu-1, H69, H128, H146), the “sensitivity (mitochondrial priming and apoptosis), lines with relatively lower Bak” value is “less sensitive”. For the same compound, the “apoptosis (active caspase 3, IHC) in tumor tissues” value in the assay with A549 xenografts (5, 10, 15mg/kg/d i.p., 28 days) is listed as “Dose-dependent”. For the same compound, the tumor growth entry in the assay with A549 xenografts (5, 10, 15mg/kg/d i.p., 28 days) is listed as “potently suppressed lung cancer growth in a dose-dependent fashion”; in the assay with A549 xenografts (A549-P xenografts, 15 mg/kg/d, 4 weeks), “repressed xenografts”; in the assay with A549 xenografts (parental A549 xenografts, 12.5mg/kg/d i.p., 28 days) it was “potently inhibited growth”; in the assay with DMS114 xenografts, “potently suppressed tumor growth”. Besides, in the assay on A549 xenografts (5, 10, 15mg/kg/d i.p., 28 days, BMH cross-linking), the “Bak oligomerization in tumor tissues” value was “Dose-dependent”.
